Paper PMC8896685 (PLoS ONE, 2022)
Numbered stars: 1 amine (or outer) side, 2 acyl side, 3 side chain; on linkers, the order of the positions; unused ones are H or OH. Square brackets hold non-standard residues; d marks the D form. Side chains are listed from the residue outwards. Peptide text beside a SMILES is read from it. * marks the point of attachment. C18 diacid = O=C(O)CCCCCCCCCCCCCCCCC(=O)*; γGlu = O=C(O)[C@H](CCC(=O)[*:2])N[*:1]; Desaminohistidyl = O=C(CCc1c[nH]cn1)*; Ac4c = NC1(C(=O)O)CCC1; AEEA = NCCOCCOCC(=O)O; Aib = CC(C)(N)C(=O)O

Tests used:
Mouse GLP-1R = biological target: T1, Mouse GLP-1R (Mus musculus, UniProt O35659); test: Receptor binding, SPA competitive binding assay; details: SPA competitive binding on BHK cell membranes, [125I]-GLP-1(7–36)-NH2 tracer, 1% species specific plasma, 2 h 30°C; value (95% CI)
T1 construct: a plasmid encoding either the glucagon receptor or the GLP-1 receptor from the relevant species; expressed in transfected cells
T1 sequence (O35659 22-463): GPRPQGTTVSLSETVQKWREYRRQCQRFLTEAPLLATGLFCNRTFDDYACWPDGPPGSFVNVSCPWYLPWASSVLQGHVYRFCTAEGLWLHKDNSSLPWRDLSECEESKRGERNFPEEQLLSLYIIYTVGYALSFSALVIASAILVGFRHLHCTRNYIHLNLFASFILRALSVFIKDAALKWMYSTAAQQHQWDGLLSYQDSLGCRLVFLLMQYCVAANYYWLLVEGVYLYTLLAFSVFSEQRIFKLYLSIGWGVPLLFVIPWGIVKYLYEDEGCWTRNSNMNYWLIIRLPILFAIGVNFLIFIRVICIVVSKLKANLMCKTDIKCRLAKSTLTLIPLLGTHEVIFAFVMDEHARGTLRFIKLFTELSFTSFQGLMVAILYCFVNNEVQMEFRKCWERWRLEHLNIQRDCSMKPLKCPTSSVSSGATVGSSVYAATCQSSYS
Description: The binding assay was performed on cell membranes in the presence of 1% (v/v) species-specific heparin-treated pooled plasma (Bioreclamation IVT, Westbury, NY) diluted in assay buffer (50 mM HEPES supplemented with 5 mM EGTA, 5 mM MgCl2, and 0.005% (v/v) Tween 20, pH7.4). […] Cells stably expressing an individual receptor of interest were grown at 5% CO2, 37°C in DMEM (supplemented with 10% FCS, 0.5 mg/ml G418 and 0.3 mg/ml hygromycin). Membrane preparations were made from cells harvested at approximately 80% confluence, washed and homogenized in 20 mM HEPES with 0.1 mM EDTA, pH 7.4. Protein concentration was determined, and the membranes were stored at -80°C until use. The membrane binding assay was performed in a 96-well OptiPlate (PerkinElmer) in a total volume of 200 μl. Test compounds were dissolved in 80% DMSO and further diluted in assay buffer. 50 μl of diluted plasma was added to the assay plate wells followed by addition of test compounds (25 μl), cell membranes (50 μl, 0.06 mg/ml), SPA beads (20 mg/ml in assay buffer) and radioligand (60,000 cpm/well, corresponding to 0.06 nM; 2200 Ci/mmol. Each assay plate was incubated for 2 h at 30°C, centrifuged at 1500 rpm for 10 minutes and counted in a TopCount NXT instrument (PerkinElmer).
For the receptor binding assays, logIC50 values were calculated using non-linear regression analysis. The error estimation was reported as the 95% confidence interval. […] The calculations were performed in GraphPad Prism 6.4 (GraphPad, San Diego, CA) and error estimation was expressed as the 95% confidence interval. […] Averages, error estimation, ratios and plasma shifts were all calculated on logIC50 or logEC50 values and transformed to the anti-log values for reporting purposes.

DIO mice = test: Subchronic effect on glucose tolerance in DIO mice (IPGTT at steady state); type: in vivo, mouse
Description: (§1) Compound exposure was measured by Luminescence Oxygen Channeling Immunoassay (LOCI). […] The three reactants were combined with the analyte and formed a two-sited immuno-complex. Illumination of the complex released singlet oxygen […] from the donor beads. They were channeled into the acceptor beads and triggered a chemiluminescence response which was measured in an EnVision plate reader (PerkinElmer). The amount of light was proportional to the concentration of the analyte. As calibrators, a dilution line of the relevant analyte in rat/mouse plasma was included.
Animals were fasted for 5–6 h prior to intraperitoneal (i.p.) injection of 2 g/kg glucose. Blood glucose was analysed on whole blood from the tail vein of conscious animals using a Biosen S-line glucose analyzer (EKF-diagonistic Gmbh, Barleben, Germany) by the glucose oxidase method, at basal and at t = 15, 30, 60, 90, 180 min post glucose administration.
DIO mice received s.c. injections once daily for 4–5 weeks. Animals were dosed at different times of day to allow for assessment of glucose tolerance and other metabolic parameters at same time of day but at different time points in relation to dosing. […] Body composition was assessed in conscious animals by Magnetic Resonance (MR) scanning prior to initiation of treatment and at the end of the treatment period. Steady-state plasma parameters were assessed in non-fasted animals. Additional DIO mice (n = 4) were included for verification of 24-h peptide exposure in steady state. The mice received s.c. doses daily for 2 weeks (13 days) with 3 nmol/kg NN1177; 5 nmol/kg NN1151 or 5 nmol/kg NN1359, where after plasma sampled after t = 5 h (NN1177) or 6 h (NN1151, NN1359), 10 h (all co-agonists) and 24 h (all co-agonists) post-dosing was analysed for exposure.
Analogues were tested for subchronic effect in two different set-ups. […] The Cmax and Cmin animals were included in separate treatment groups and evaluated head-to-head for glucose tolerance and additional metabolic parameters at the end of the treatment period. […] IPGTT was performed as described above, but additionally blood was sampled from vena facialis of conscious animals at t = 210 min relative to the administration of glucose for exposure analysis.
IPGTT was performed as described above.

in vivo = details: rat, iv
Description: as §1
At t=0, 5 min, 10 min, 30 min, 2 h, 4 h, 8 h, 12 h, 24 h, 32 h, 48 h, 56 h, and 72 h post dosing, plasma was sampled from the sublingual plexus for analysis of plasma exposure measured by LOCI.
Plasma concentration-time profiles were analysed using non-compartmental analysis (NCA) using Phoenix WinNonlin Professional 6.3 (Pharsight, Mountain View, CA, US). Calculations were performed using full concentration-time profile values or sparse sampling concentration-time values as appropriate.

[1] = steady state 5 weeks, 3 and 5 nmol/kg, Cmax (5 h post dosing), p<0.001
[2] = steady state, after 3 weeks daily s.c. dosing, Cmax (5 h post dosing), p<0.001
[3] = steady state, after 4 weeks daily s.c. dosing, Cmin (24 h post dosing)
[4] = steady state, after 4 weeks daily s.c. dosing, Cmin (24 h post dosing), p<0.001

Row | IC50 (Mouse GLP-1R) [nM] | half-life (in vivo) [h] | Compound | Glucose tolerance (IPGTT) vs vehicle (DIO mice; steady state 5 weeks, 3 nmol/kg, Cmin (24 h post dosing), p<0.001) | Glucose tolerance (IPGTT) vs vehicle (DIO mice; steady state 5 weeks, 5 nmol/kg, Cmin (24 h post dosing)) | Basal blood glucose vs vehicle (DIO mice; [1]) | Glucose tolerance (IPGTT) vs vehicle (DIO mice; [1]) | Basal blood glucose vs vehicle (DIO mice; steady state 5 weeks, Cmin (24 h post dosing), p<0.001) | Glucose tolerance (IPGTT) vs vehicle (DIO mice; [2]) | Basal blood glucose vs vehicle (DIO mice; [3]) | Glucose tolerance (IPGTT) vs vehicle (DIO mice; [4])
1 | 0.11 | 8 | CC(C)C[C@H](NC(=O)[C@H](Cc1ccc(O)cc1)NC(=O)[C@H](CCCCN)NC(=O)[C@H](CO)NC(=O)[C@H](CC(C)C)NC(=O)[C@H](CC(=O)O)NC(=O)[C@H](CO)NC(=O)[C@@H](NC(=O)[C@H](Cc1ccccc1)NC(=O)[C@@H](NC(=O)CNC(=O)[C@H](CCC(N)=O)NC(=O)C(C)(C)NC(=O)[C@@H](N)Cc1c[nH]cn1)[C@@H](C)O)[C@@H](C)O)C(=O)N[C@@H](CCC(=O)O)C(=O)N[C@@H](CO)C(=O)N[C@@H](CCCCN)C(=O)N[C@@H](CCCNC(=N)N)C(=O)N[C@@H](C)C(=O)N[C@@H](CCCNC(=N)N)C(=O)N[C@@H](CCC(=O)O)C(=O)N[C@@H](Cc1ccccc1)C(=O)N[C@H](C(=O)N[C@@H](CCC(N)=O)C(=O)N[C@@H](Cc1c[nH]c2ccccc12)C(=O)N[C@@H](CC(C)C)C(=O)N[C@@H](CC(C)C)C(=O)N[C@@H](CCCCNC(=O)CC[C@H](NC(=O)CC[C@H](NC(=O)[C@H](CO)NC(=O)[C@H](CCC(=O)O)NC(=O)[C@H](CO)NC(=O)CC[C@H](NC(=O)CC[C@H](NC(=O)CCCCCCCCCCCCCCCCC(=O)O)C(=O)O)C(=O)O)C(=O)O)C(=O)O)C(=O)N[C@H](C(N)=O)[C@@H](C)O)C(C)C [NN1177] (H-H[Aib]QGTFTSDLSKYLESKRAREFVQWLLK([γGlu-γGlu-Ser-Glu-Ser-γGlu-γGlu-C18 diacid])T-NH2) | impaired | at the level of vehicle | improved | improved | improved | – | – | –
2 | 0.37 | 11 | CC[C@H](C)[C@H](NC(=O)[C@H](Cc1ccccc1)NC(=O)[C@H](CCC(=O)O)NC(=O)[C@H](CCCNC(=N)N)NC(=O)[C@H](C)NC(=O)[C@H](C)NC(=O)[C@H](CCC(N)=O)NC(=O)[C@H](CCC(=O)O)NC(=O)[C@H](CCC(=O)O)NC(=O)[C@H](CC(C)C)NC(=O)[C@H](Cc1ccc(O)cc1)NC(=O)[C@H](CCCCN)NC(=O)[C@H](CO)NC(=O)[C@@H](NC(=O)[C@H](CC(=O)O)NC(=O)[C@H](CO)NC(=O)[C@@H](NC(=O)[C@H](Cc1ccccc1)NC(=O)[C@@H](NC(=O)CNC(=O)[C@H](Cc1c[nH]cn1)NC(=O)C(C)(C)NC(=O)CCc1c[nH]cn1)[C@@H](C)O)[C@@H](C)O)C(C)C)C(=O)N[C@@H](C)C(=O)N[C@@H](Cc1c[nH]c2ccccc12)C(=O)N[C@@H](CC(C)C)C(=O)N[C@@H](CC(C)C)C(=O)N[C@@H](CCCCNC(=O)COCCOCCNC(=O)COCCOCCNC(=O)CC[C@H](NC(=O)CC[C@H](NC(=O)CCCCCCCCCCCCCCCCC(=O)O)C(=O)O)C(=O)O)C(=O)N[C@H](C(N)=O)[C@@H](C)O [NN1359] (Desaminohistidyl-[Aib]HGTFTSDVSKYLEEQAAREFIAWLLK([AEEA-AEEA-γGlu-γGlu-C18 diacid])T-NH2) | – | – | – | – | – | significantly improved | significantly improved | significantly improved

Row | Compound | IC50 (Mouse GLP-1R) [nM] | half-life (in vivo) [h] | Glucose tolerance (IPGTT) vs vehicle (DIO mice; steady state 5 weeks, 3 nmol/kg, Cmin (24 h post dosing), p<0.001) | Glucose tolerance (IPGTT) vs vehicle (DIO mice; steady state 5 weeks, 5 nmol/kg, Cmin (24 h post dosing)) | Basal blood glucose vs vehicle (DIO mice; [1]) | Glucose tolerance (IPGTT) vs vehicle (DIO mice; [1]) | Basal blood glucose vs vehicle (DIO mice; steady state 5 weeks, Cmin (24 h post dosing), p<0.001) | Glucose tolerance (IPGTT) vs vehicle (DIO mice; [2]) | Basal blood glucose vs vehicle (DIO mice; [3]) | Glucose tolerance (IPGTT) vs vehicle (DIO mice; [4])
3 | CC(C)C[C@H](NC(=O)[C@H](CC(=O)O)NC(=O)[C@H](CC(C)C)NC(=O)[C@H](Cc1ccc(O)cc1)NC(=O)[C@H](CCCCN)NC(=O)[C@H](CO)NC(=O)[C@H](CC(C)C)NC(=O)[C@H](CC(=O)O)NC(=O)[C@H](CO)NC(=O)[C@@H](NC(=O)[C@H](Cc1ccccc1)NC(=O)[C@@H](NC(=O)CNC(=O)[C@H](CCC(N)=O)NC(=O)C1(NC(=O)[C@@H](N)Cc2c[nH]cn2)CCC1)[C@@H](C)O)[C@@H](C)O)C(=O)N[C@@H](CCCNC(=N)N)C(=O)N[C@@H](CCCNC(=N)N)C(=O)N[C@@H](C)C(=O)N[C@@H](CCCNC(=N)N)C(=O)N[C@@H](CC(=O)O)C(=O)N[C@@H](Cc1ccccc1)C(=O)N[C@H](C(=O)N[C@@H](CCC(N)=O)C(=O)N[C@@H](Cc1c[nH]c2ccccc12)C(=O)N[C@@H](CC(C)C)C(=O)N[C@@H](CC(C)C)C(=O)N[C@@H](CCCCNC(=O)CC[C@H](NC(=O)CC[C@H](NC(=O)COCCOCCNC(=O)COCCOCCNC(=O)CC[C@H](NC(=O)CC[C@H](NC(=O)CCCCCCCCCCCCCCCCC(=O)O)C(=O)O)C(=O)O)C(=O)O)C(=O)O)C(=O)N[C@H](C(N)=O)[C@@H](C)O)C(C)C [NN1151] (H-H[Ac4c]QGTFTSDLSKYLDLRRARDFVQWLLK([γGlu-γGlu-AEEA-AEEA-γGlu-γGlu-C18 diacid])T-NH2) | 1.87 | 4 | – | – | – | – | – | improved | at the level of vehicle treated animals | significantly impaired
